Measured values taken from patent US9433622B2, “Pyrimidine compounds useful in the treatment of diseases mediated by IKKE and/or TBK1 mechanisms” (DOMAINEX LIMITED, priority 2013, dated 2016).
pIC50: −log10 of the molar value. Where two headings read alike, the source gives them in different places.

How the values were obtained:
IKKε = IKKε (Homo sapiens (Human), UniProt Q14164); assay: Lanthascreen TR-FRET kinase inhibition assay, IKKε; format: biochemical
Method: (§1) Compounds of the invention (synthesised as described below) were tested for activity against the IKKε and TBK-1 enzyme as follows:
(§2) Inhibitions studies were performed using a time-resolved fluorescence-based Lanthascreen™ assay. Phosphorylation of a fluorescein-labelled substrate peptide is measured using terbium-labeled phosphospecific antibodies.
(§3) Kinase inhibition assays (10 μL) were performed at 20° C. in 384-well plate format. […] The final reaction conditions contained 400 nM fluorescein-IkBα substrate ([…]), 20 μM ATP, 2 nM or 8 nM IKKε or TBK1 kinase respectively, and 3% DMSO in kinase assay buffer consisting of 50 mM HEPES (pH 7.5), 10 mM MgCl, 1 mM EGTA, 0.01% Brij-35.
(§4) Compound dilutions were prepared from 10 mM DMSO stocks by dilution into DMSO.
(§5) The kinase phosphorylation assay was initiated by the addition of the kinase and the reaction was allowed to proceed for 1 h or 2.5 h for IKKε and TBK-1 kinase respectively.

TBK1 = TBK1 (Homo sapiens (Human), UniProt Q9UHD2); assay: Lanthascreen TR-FRET kinase inhibition assay, TBK1; format: biochemical; conditions: 20 μM ATP (apparent Km), 8 nM kinase, 2.5 h
Method: as §1, §2, §3, §4, §5

[1] = 20 μM ATP (apparent Km), 2 nM kinase, 1 h

Chain of TBK1 (Q9UHD2 whole entry): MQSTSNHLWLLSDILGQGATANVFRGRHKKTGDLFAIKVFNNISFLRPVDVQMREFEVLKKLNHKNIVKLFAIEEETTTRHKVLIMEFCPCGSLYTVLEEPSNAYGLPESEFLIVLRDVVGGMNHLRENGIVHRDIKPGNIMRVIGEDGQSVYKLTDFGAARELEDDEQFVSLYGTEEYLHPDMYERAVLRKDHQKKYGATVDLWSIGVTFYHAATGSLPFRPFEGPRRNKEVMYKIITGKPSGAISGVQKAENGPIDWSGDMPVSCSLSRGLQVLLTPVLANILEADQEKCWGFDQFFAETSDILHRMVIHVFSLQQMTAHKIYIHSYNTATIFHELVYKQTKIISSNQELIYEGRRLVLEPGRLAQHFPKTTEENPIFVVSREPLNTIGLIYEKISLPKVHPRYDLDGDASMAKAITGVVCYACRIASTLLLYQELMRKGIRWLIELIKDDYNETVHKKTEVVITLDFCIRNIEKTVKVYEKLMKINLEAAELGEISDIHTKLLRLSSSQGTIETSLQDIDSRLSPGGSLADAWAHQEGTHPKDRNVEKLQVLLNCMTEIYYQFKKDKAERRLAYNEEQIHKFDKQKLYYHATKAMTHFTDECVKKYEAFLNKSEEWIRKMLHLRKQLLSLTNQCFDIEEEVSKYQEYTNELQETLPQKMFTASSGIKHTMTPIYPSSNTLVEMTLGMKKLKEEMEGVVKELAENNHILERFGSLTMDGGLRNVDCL
Chain of IKKε (Q14164 whole entry): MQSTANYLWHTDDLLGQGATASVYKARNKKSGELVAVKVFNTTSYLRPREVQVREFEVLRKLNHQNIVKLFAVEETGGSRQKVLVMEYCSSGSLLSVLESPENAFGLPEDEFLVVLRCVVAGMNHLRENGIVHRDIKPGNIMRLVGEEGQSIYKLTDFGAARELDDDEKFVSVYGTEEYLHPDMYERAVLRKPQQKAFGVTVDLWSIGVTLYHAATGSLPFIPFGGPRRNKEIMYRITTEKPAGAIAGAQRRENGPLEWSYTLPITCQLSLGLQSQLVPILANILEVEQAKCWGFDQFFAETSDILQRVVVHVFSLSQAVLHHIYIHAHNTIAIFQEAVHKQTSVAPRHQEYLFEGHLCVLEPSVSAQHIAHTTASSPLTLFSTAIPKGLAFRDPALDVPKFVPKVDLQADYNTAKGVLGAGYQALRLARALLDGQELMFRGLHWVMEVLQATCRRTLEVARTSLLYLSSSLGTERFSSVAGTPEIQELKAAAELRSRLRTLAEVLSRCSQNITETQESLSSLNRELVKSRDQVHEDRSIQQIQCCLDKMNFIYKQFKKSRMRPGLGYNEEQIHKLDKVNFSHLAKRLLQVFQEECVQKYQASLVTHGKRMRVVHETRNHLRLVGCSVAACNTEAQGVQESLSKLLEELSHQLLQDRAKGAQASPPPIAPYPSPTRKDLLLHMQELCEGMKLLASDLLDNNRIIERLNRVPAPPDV

SMILES	pIC50 (IKKε)	pIC50 (TBK1)	pIC50 (IKKε; [1])
C[C@H]1COCCN1Cc1ccc(Nc2nccc(-c3ccc(N4CC[C@H](F)C4)c(C#N)n3)n2)cn1 [DMX-149, 3-((S)-3-Fluoro-pyrrolidin-1-yl)-6-{2-[6-((S)-3-methyl-morpholin-4-ylmethyl)-pyridin-3-ylamino]-pyrimidin-4-yl}-pyridine-2-carbonitrile]	> 7.82	> 7.82	
N#Cc1cc(-c2ccnc(Nc3ccc(CN4CCOCC4)cc3)n2)cnc1N1CC[C@H](F)C1 [DMX-30, 2-((S)-3-Fluoro-pyrrolidin-1-yl)-5-[2-(4-morpholin-4-ylmethyl-phenylamino)-pyrimidin-4-yl]-nicotinonitrile]		> 7.82	> 7.82
COCCNCC(=O)Nc1ccc(Nc2nccc(-c3cnc(N4CC[C@H](F)C4)c(C#N)c3)n2)cn1 [DMX-54, N-(5-{4-[5-Cyano-6-((S)-3-fluoro-pyrrolidin-1-yl)-pyridin-3-yl]-pyrimidin-2-ylamino}-pyridin-2-yl)-2-(2-methoxy-ethylamino)-acetamide]		> 7.00	> 7.52
CN1CCC(NC(=O)c2cccc(Nc3nccc(-c4cnc(N5CC[C@H](O)C5)c(C#N)c4)n3)c2)CC1 [DMX-12, 3-{4-[5-Cyano-6-((S)-3-hydroxy-pyrrolidin-1-yl)-pyridin-3-yl]-pyrimidin-2-ylamino}-N-(1-methyl-piperidin-4-yl)-benzamide]		> 7.00	> 6.00
Cc1nccn1Cc1ccc(Nc2nccc(-c3cnc(N4CC[C@H](F)C4)c(C#N)c3)n2)cn1 [DMX-81, 2-((S)-3-Fluoro-pyrrolidin-1-yl)-5-{2-[6-(2-methyl-imidazol-1-ylmethyl)-pyridin-3-ylamino]-pyrimidin-4-yl}-nicotinonitrile]		> 7.52	> 7.52
CN1CCC(Nc2ccc(Nc3nccc(-c4cnc(N5CC[C@H](F)C5)c(C#N)c4)n3)cn2)CC1 [DMX-9, 2-((S)-3-Fluoro-pyrrolidin-1-yl)-5-{2-[6-(1-methyl-piperidin-4-ylamino)-pyridin-3-ylamino]-pyrimidin-4-yl}-nicotinonitrile]		> 7.52	> 7.82
N#Cc1cc(-c2ccnc(Nc3ccc(N4CCNCC4)nc3)n2)cnc1N1CC[C@H](F)C1 [DMX-25, 2-((S)-3-Fluoro-pyrrolidin-1-yl)-5-[2-(6-piperazin-1-yl-pyridin-3-ylamino)-pyrimidin-4-yl]-nicotinonitrile]		> 7.52	> 7.82
N#Cc1cc(-c2ccnc(Nc3ccc(NCCO)nc3)n2)cnc1N1CC[C@H](F)C1 [DMX-27, 2-((S)-3-Fluoro-pyrrolidin-1-yl)-5-{2-[6-(2-hydroxy-ethylamino)-pyridin-3-ylamino]-pyrimidin-4-yl}-nicotinonitrile]	> 7.52	> 7.52	
N#Cc1cc(-c2ccnc(Nc3ccc(NC4CCNCC4)nc3)n2)cnc1N1CC[C@H](F)C1 [DMX-10, 2-((S)-3-Fluoro-pyrrolidin-1-yl)-5-{2-[6-(piperidin-4-ylamino)-pyridin-3-ylamino]-pyrimidin-4-yl}-nicotinonitrile]		> 7.52	> 7.52
N#Cc1nc(-c2ccnc(Nc3ccc(NC(=O)CN4CCOCC4)nc3)n2)ccc1N1CC[C@H](F)C1 [DMX-142]		> 7.82	> 7.82
N#Cc1cc(-c2ccnc(Nc3ccc(NC(=O)CN4CCOCC4)nc3)n2)cnc1N1CC[C@@H](F)C1 [DMX-112, N-(5-{4-[5-Cyano-6-((R)-3-fluoro-pyrrolidin-1-yl)-pyridin-3-yl]-pyrimidin-2-ylamino}-pyridin-2-yl)-2-morpholin-4-yl-acetamide]		> 7.52	> 7.82
CN1CCC(Nc2ccc(Nc3nccc(-c4cnc(NCCO)c(C#N)c4)n3)cn2)CC1 [DMX-120, 2-(2-Hydroxy-ethylamino)-5-{2-[6-(1-methyl-piperidin-4-ylamino)-pyridin-3-ylamino]-pyrimidin-4-yl}-nicotinonitrile]		> 7.00	> 6.00
N#Cc1cc(-c2ccnc(Nc3ccnc(N4CCOCC4)c3)n2)cnc1N1CC[C@H](F)C1 [DMX-61, 2-((S)-3-Fluoro-pyrrolidin-1-yl)-5-[2-(2-morpholin-4-yl-pyridin-4-ylamino)-pyrimidin-4-yl]-nicotinonitrile]		> 7.82	> 7.82
COCCN(C)Cc1ccc(Nc2nccc(-c3ccc(N4CC[C@H](F)C4)c(C#N)n3)n2)cn1 [DMX-152, 3-((S)-3-Fluoro-pyrrolidin-1-yl)-6-[2-(6-{[(2-methoxy-ethyl)-methyl-amino]-methyl}-pyridin-3-ylamino)-pyrimidin-4-yl]-pyridine-2-carbonitrile]		> 7.52	> 7.52
N#Cc1cc(-c2ccnc(Nc3ccc(C(N)=O)cc3)n2)cnc1N1CCCC1 [DMX-37, 4-[4-(5-Cyano-6-pyrrolidin-1-yl-pyridin-3-yl)-pyrimidin-2-ylamino]-benzamide]		> 7.82	> 7.82
CN(C(=O)CN1CCOCC1)c1ccc(Nc2nccc(-c3cnc(N4CC[C@H](F)C4)c(C#N)c3)n2)cn1 [DMX-74, N-(5-{4-[5-Cyano-6-((S)-3-fluoro-pyrrolidin-1-yl)-pyridin-3-yl]-pyrimidin-2-ylamino}-pyridin-2-yl)-N-methyl-2-morpholin-4-yl-acetamide]		> 7.00	> 7.00
COCCNc1cc(Nc2nccc(-c3cnc(N4CC[C@H](F)C4)c(C#N)c3)n2)ccn1 [DMX-72, 2-((S)-3-Fluoro-pyrrolidin-1-yl)-5-{2-[2-(2-methoxy-ethylamino)-pyridin-4-ylamino]-pyrimidin-4-yl}-nicotinonitrile]		> 7.82	> 7.52
N#Cc1nc(-c2ccnc(Nc3ccc(NC(=O)CN4CCOCC4)nc3)n2)ccc1N1CCCOCC1 [DMX-166, N-{5-[4-(6-Cyano-5-[1,4]oxazepan-4-yl-pyridin-2-yl)-pyrimidin-2-ylamino]-pyridin-2-yl)-2-morpholin-4-yl-acetamide]		> 7.00	> 7.00
N#Cc1cc(-c2ccnc(Nc3ccc(C(N)=O)nc3)n2)cnc1N1CC[C@H](F)C1 [DMX-47, 5-{4-[5-Cyano-6-((S)-3-fluoro-pyrrolidin-1-yl)-pyridin-3-yl]-pyrimidin-2-ylamino}-pyridine-2-carboxylic acid amide]		> 7.52	> 7.52
N#Cc1cc(-c2ccnc(Nc3ccc(CN4CCOCC4)nc3)n2)cnc1N1CCCC1CC(N)=O (stereo not shown) [DMX-131, 2-(1-{3-Cyano-5-[2-(6-morpholin-4-ylmethyl-pyridin-3-ylamino)-pyrimidin-4-yl]-pyridin-2-yl}-pyrrolidin-2-yl)-acetamide]		> 7.52	> 7.52
CN1CCC(Nc2ccc(Nc3nccc(-c4cnc(N[C@@H]5CCOC5)c(C#N)c4)n3)cn2)CC1 [DMX-114, 5-{2-[6-(1-Methyl-piperidin-4-ylamino)-pyridin-3-ylamino]-pyrimidin-4-yl}-2-[(R)-(tetrahydro-furan-3-yl)amino]-nicotinonitrile]		> 7.00	> 7.00
CC(C)C(Nc1ncc(-c2ccnc(Nc3ccc(CN4CCOCC4)nc3)n2)cc1C#N)C(N)=O (stereo not shown) [DMX-136, 2-{3-Cyano-5-[2-(6-morpholin-4-ylmethyl-pyridin-3-ylamino)-pyrimidin-4-yl]-pyridin-2-ylamino}-3-methyl-butyramide]		> 7.82	> 7.82
Cn1cc(Nc2nccc(-c3cnc(N4CCC[C@@H]4C(N)=O)c(C#N)c3)n2)cn1 [DMX-43, (R)-1-{3-Cyano-5-[2-(1-methyl-1H-pyrazol-4-ylamino)-pyrimidin-4-yl]-pyridin-2-yl}-pyrrolidine-2-carboxylic acid amide]		> 7.00	> 7.00
N#Cc1nc(-c2ccnc(Nc3ccc(N4CCOCC4)cc3)n2)ccc1N1CC[C@H](O)C1 [DMX-57, 3-((S)-3-Hydroxy-pyrrolidin-1-yl)-6-[2-(4-morpholin-4-yl-phenylamino)-pyrimidin-4-yl]-pyridine-2-carbonitrile]		> 7.82	> 7.52
N#Cc1cc(-c2ccnc(Nc3ccc(CN4CCOCC4)nc3)n2)cnc1N1CCC(OC(F)F)C1 (stereo not shown) [DMX-161, 2-(3-Difluoromethoxy-pyrrolidin-1-yl)-5-[2-(6-morpholin-4-ylmethyl-pyridin-3-ylamino)-pyrimidin-4-yl]-nicotinonitrile]		> 7.00	> 7.52
COCC1CCN(c2ncc(-c3ccnc(Nc4ccc(CN5CCOCC5)nc4)n3)cc2C#N)C1 (stereo not shown) [DMX-160, 2-(3-Methoxymethyl-pyrrolidin-1-yl)-5-[2-(6-morpholin-4-ylmethyl-pyridin-3-ylamino)-pyrimidin-4-yl]-nicotinonitrile]		> 6.00	> 7.00
CN1CCC(NC(=O)c2cccc(Nc3nccc(-c4cnc(N5CCC(F)(F)C5)c(C#N)c4)n3)c2)CC1 [DMX-14, 3-{4-[5-Cyano-6-(3,3-difluoro-pyrrolidin-1-yl)-pyridin-3-yl]-pyrimidin-2-ylamino}-N-(1-methyl-piperidin-4-yl)-benzamide]		> 7.00	> 7.00
N#Cc1cc(-c2ccnc(Nc3ccc(NC(=O)CN4CCNCC4)nc3)n2)cnc1N1CC[C@H](F)C1 [DMX-31, N-(5-{4-[5-Cyano-6-((S)-3-fluoro-pyrrolidin-1-yl)-pyridin-3-yl]-pyrimidin-2-ylamino}-pyridin-2-yl)-2-piperazin-1-yl-acetamide]		> 7.52	> 7.00
CC(C(=O)Nc1ccc(Nc2nccc(-c3cnc(N4CC[C@H](F)C4)c(C#N)c3)n2)cn1)N(C)C (stereo partly drawn) [DMX-18, N-(5-{4-[5-Cyano-6-((S)-3-fluoro-pyrrolidin-1-yl)-pyridin-3-yl]-pyrimidin-2-ylamino}-pyridin-2-yl)-2-dimethylamino-propionamide]		> 7.00	> 7.00
